Data published in patent US9328374B2, “Selective culture medium and method for detecting carbapenem-resistant bacteria in a test sample” (Institut National de la Sante et de la Recherche Medicale …, priority 2011, dated 2016).

Tested on: K. pneumoniae
Experiment: MIC of imipenem, ertapenem and meropenem
Assay type: cell-based, Klebsiella pneumoniae

Measured: MIC

C[C@@H](O)[C@H]1C(=O)N2C(C(=O)O)=C(S[C@@H]3CN[C@H](C(=O)N(C)C)C3)[C@H](C)[C@H]12 [MEM, meropenem]
0.016 µg/mL: K. pneumoniae 0227, SHV-1, non-carbapenemase producer | K. pneumoniae 1025 (CTX-M-14 + TEM-1 + SHV-11) | K. pneumoniae 1025, CTX-M-14 + TEM-1 + SHV-11, non-carbapenemase producer
0.25 µg/mL: K. pneumoniae BEN (OXA-48 + TEM-1 + CTX-M-15 + SHV-28) | K. pneumoniae BEN, OXA-48 + TEM-1 + CTX-M-15 + SHV-28 | K. pneumoniae BOU, OXA-48
1.5 µg/mL: K. pneumoniae GES, KPC-2 + TEM-1 + SHV-11
0.12 µg/mL: K. pneumoniae KDH (DHA-2) | K. pneumoniae KDH, DHA-2, non-carbapenemase producer, overexpressed AmpC | K. pneumoniae KPN (CTX-M-15)
32 µg/mL: K. pneumoniae A28006, KPC-2 + TEM-1 + CTX-M-2 + SHV-11 | K. pneumoniae COL (KPC-2 + TEM-1 + SHV-1 + CTX-M-15) | K. pneumoniae DUW, OXA-48 + TEM-1 + CTX-M-15 + SHV-28
>32 µg/mL: K. pneumoniae 1 OMA (NDM-1 + CTX-M-15 + OXA-1 + OXA-9) | K. pneumoniae 7 AFR (NDM-1 + OXA-1 + CTX-M-15 + CMY-6 + TEM-1) | K. pneumoniae 7AFR, NDM-1 + TEM-1 + CTX-M-15 + CMY-6 + OXA-1 | K. pneumoniae 2303, KPC-2 + SHV-11 | K. pneumoniae 6759 GEN (NDM-1 + CTX-M-15 + OXA-1 + OXA-9 + OXA-10 + CMY16) | K. pneumoniae 6759 GEN, NDM-1 + CTX-M-15 + CMY-16 + OXA-1 + OXA-9 + OXA-10 | K. pneumoniae 0404020, VIM-1+ SHV-5 | K. pneumoniae 0404024, VIM-1 | K. pneumoniae 0511135, VIM-1+ SHV-12 | K. pneumoniae A33504, KPC-2 + TEM-1 + SHV-11 + CTX-M-2 + OXA-9 | K. pneumoniae DIA, OXA-48 + TEM-1b + CTX-M-15 + SHV-11 + OXA-1 | K. pneumoniae FOS (CTX-M-15 + TEM-1 + SHV-11) | K. pneumoniae FOS, CTX-M-15 + TEM-1 + SHV-11, non-carbapenemase producer, porin deficiency
12 µg/mL: K. pneumoniae HPA, OXA-48 + TEM-1 + CTX-M-15 + OXA-1
4 µg/mL: K. pneumoniae ALE (CTX-M-15 + SHV-1) | K. pneumoniae ALE, CTX-M-15 + SHV-1, non-carbapenemase producer, porin deficiency | K. pneumoniae BED (CTX-M-15 + TEM-1 + SHV-1; Table 8: SHV-11) | K. pneumoniae BED, CTX-M-15 + TEM-1 + SHV-11, non-carbapenemase producer, porin deficiency | K. pneumoniae COO (CTX-M-15 + SHV28) | K. pneumoniae COO, CTX-M-15 + SHV-28, non-carbapenemase producer, porin deficiency | K. pneumoniae IND (NDM-1 + OXA-1 + CTX-M-15) | K. pneumoniae KI2, NDM-1 + CTX-M-15 + OXA-1
2 µg/mL: K. pneumoniae 2 OLA (NDM-1 + OXA-1) | K. pneumoniae 0709124, IMP-1 + TEM-15 | K. pneumoniae 0709125, IMP-1 + TEM-1 + SHV-12 | K. pneumoniae EGY (OXA-48 + CTX-M-15) | K. pneumoniae EGY, OXA-48 + CTX-M-15 | K. pneumoniae KAM, KPC-3 + TEM-1 + SHV-11
0.5 µg/mL: K. pneumoniae BIC (OXA-48) | K. pneumoniae BIC, OXA-48 | K. pneumoniae CHA (OXA-48 + TEM-1) | K. pneumoniae CHA, OXA-48 + TEM-1
3 µg/mL: K. pneumoniae 6642 GEN (NDM-1 + CTX-M-15 + OXA-1 + OXA-10) | K. pneumoniae 6642 GEN, NDM-1 + CTX-M-15 + OXA-1 + OXA-10
0.38 µg/mL: K. pneumoniae 648236 (SHV-2a) | K. pneumoniae 648236, SHV-2a, non-carbapenemase producer, porin deficiency | K. pneumoniae AEL, OXA-48 + CTX-M-15 + SHV-28 + OXA-1 | K. pneumoniae AMS (OXA-48 + TEM-1 + CTX-M-15 + OXA-1) | K. pneumoniae AMS, OXA-48 + TEM-1 + CTX-M-15 + OXA-1 | K. pneumoniae BAJ (OXA-48 + TEM-1 + CTX-M-15 + SHV-28) | K. pneumoniae BAJ, OXA-48 + TEM-1 + CTX-M-15 + SHV-28 | K. pneumoniae BEY (OXA-48 + CTX-M-15 + TEM-1) | K. pneumoniae BEY, OXA-48 + TEM-1 + CTX-M-15 | K. pneumoniae DAL (OXA-48 + CTX-M-15 + TEM-1) | K. pneumoniae DAL, OXA-48 + TEM-1 + CTX-M-15 | K. pneumoniae ELK (OXA-48 + TEM-1 + CTX-M-15 + SHV-11) | K. pneumoniae ELK, OXA-48 + TEM-1 + CTX-M-15 + SHV-11 | K. pneumoniae ENN, VIM-1+ SHV-5
0.032 µg/mL: K. pneumoniae 7725 (SHV-1) | K. pneumoniae 7725, SHV-1, non-carbapenemase producer
0.012 µg/mL: K. pneumoniae KPN, CTX-M-15, non-carbapenemase producer
1 µg/mL: K. pneumoniae 0709121, IMP-1 | K. pneumoniae 0709127, IMP-1 + TEM-1 | K. pneumoniae BEL (OXA-48) | K. pneumoniae BEL, OXA-48 | K. pneumoniae BER (TEM-1 + SHV-28) | K. pneumoniae BER, SHV-28 + TEM-1, non-carbapenemase producer, porin deficiency | K. pneumoniae HOL (OXA-181 + CTX-M-15) | K. pneumoniae HOL, OXA-181 + CTX-M-15 | K. pneumoniae KIE, NDM-1 + SHV-38 + CMY-16 + OXA-10
16 µg/mL: K. pneumoniae 588, KPC-2 + TEM-1 + SHV-11 + OXA-9
0.023 µg/mL: K. pneumoniae 1022, SHV-2a + SHV-28, non-carbapenemase producer | K. pneumoniae 10112, CTX-M-15 + TEM-1 + SHV-11, non-carbapenemase producer
